Measurements published in patent US9546150B2, “Substituted quinazolin-4-ones for inhibiting ubiquitin specific protease 7” (HYBRIGENICS SA, priority 2011, dated 2017).

How the values were obtained:
Format in all cases: biochemical
[1] = biological target: T1, USP5 (Homo sapiens, UniProt P45974); assay: USP5 activity assay, Ub-AMC substrate; conditions: UbAMC substrate 300 nM, USP5 300 pM
T1 sequence (P45974 1-858): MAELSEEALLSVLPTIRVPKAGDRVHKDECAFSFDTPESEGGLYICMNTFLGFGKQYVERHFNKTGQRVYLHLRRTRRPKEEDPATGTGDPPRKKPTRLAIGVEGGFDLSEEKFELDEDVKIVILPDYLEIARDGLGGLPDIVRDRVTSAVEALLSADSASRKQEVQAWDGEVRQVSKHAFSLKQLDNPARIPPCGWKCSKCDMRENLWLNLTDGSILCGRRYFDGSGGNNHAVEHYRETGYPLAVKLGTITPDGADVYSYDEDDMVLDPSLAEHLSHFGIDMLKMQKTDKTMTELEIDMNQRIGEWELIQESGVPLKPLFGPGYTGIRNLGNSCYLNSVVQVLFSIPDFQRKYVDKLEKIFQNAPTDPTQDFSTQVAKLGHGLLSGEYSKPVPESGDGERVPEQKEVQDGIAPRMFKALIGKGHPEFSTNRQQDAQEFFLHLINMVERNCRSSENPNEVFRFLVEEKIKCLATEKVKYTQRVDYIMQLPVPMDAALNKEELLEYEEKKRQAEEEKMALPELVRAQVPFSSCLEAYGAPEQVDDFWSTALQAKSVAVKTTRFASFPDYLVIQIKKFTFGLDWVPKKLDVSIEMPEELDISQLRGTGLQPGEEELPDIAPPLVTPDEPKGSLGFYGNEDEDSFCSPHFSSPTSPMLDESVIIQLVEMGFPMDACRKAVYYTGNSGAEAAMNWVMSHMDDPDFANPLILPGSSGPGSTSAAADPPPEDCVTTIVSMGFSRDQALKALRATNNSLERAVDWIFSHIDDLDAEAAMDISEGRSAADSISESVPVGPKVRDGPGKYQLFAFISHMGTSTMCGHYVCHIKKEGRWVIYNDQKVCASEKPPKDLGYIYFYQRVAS
Procedure: USP5 was diluted in USP buffer (50 mM Tris HCl; 0.5 mM EDTA; 5 mM DTT; 0.01% Triton X-100; Bovine Serum Albumin 0.05 mg·ml^−1 pH 7.6). Compounds stocks (100 mM) were stored at −20° C. in DMSO.
(§1) Reactions were performed as duplicates in Black 384 well plates (small volume microplates; Greiner; 10 μl final reaction volume). The substrate concentration for USP5 was 300 nM Ub-AMC (Boston Biochem). The concentrations of the enzyme (USP5) in specificity assays was 300 pM. The concentrations were determined in order to perform specificity assays under initial velocities at fixed substrate concentration. Compounds were pre-incubated with enzymes for 30 minutes at 25° C. Reactions were initiated by addition of substrate to the plates containing the enzymes (+/− compounds) diluted in assay buffer. Reactions were incubated for 60 minutes at 37° C. Reactions were stopped by adding acetic acid (100 mM final). Readings were performed on a Pherastar Fluorescent Reader (BMG). λ Emission 380 nm; λ Excitation=460 nm.

[2] = biological target: T2, Caspase 3 (Homo sapiens, UniProt P42574); assay: Caspase 3 activity assay, Ac-DEVD-AMC substrate; conditions: Ac-DEVD-AMC 250 nM, Caspase 3 1.6 nM
T2 sequence (P42574 29-175 limits assumed): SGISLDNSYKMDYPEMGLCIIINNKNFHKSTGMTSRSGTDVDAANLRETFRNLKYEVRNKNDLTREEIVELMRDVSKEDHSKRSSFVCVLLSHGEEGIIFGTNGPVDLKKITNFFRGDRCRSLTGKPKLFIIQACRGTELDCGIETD
T2 sequence (P42574 176-277 limits assumed): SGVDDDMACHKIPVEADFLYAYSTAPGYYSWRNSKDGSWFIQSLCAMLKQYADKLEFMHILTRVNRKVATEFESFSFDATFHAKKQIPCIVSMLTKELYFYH
Procedure: Caspase 3 was diluted in Caspase 3 buffer (100 mM Hepes pH 7.5; 10% sucrose; 0.1% CHAPS). Compounds stocks (100 mM) were stored at −20° C. in DMSO. Compounds were tested at different concentrations: from 200 μM to 91 nM.
Reactions were performed as duplicates in Black 384 well plates (small volume microplates; Greiner; 10 μl final reaction volume). The substrate concentration for caspase 3 specificity assay was 250 nM (Ac-DEVD-AMC; Promega). The concentration of the enzyme (Caspase 3) in specificity assays was 1.6 nM. The concentrations were determined in order to perform specificity assays under initial velocities at fixed substrate concentration. Compounds were pre-incubated with enzymes for 30 minutes at 25° C. Reactions were initiated by addition of substrate to the plates containing the enzymes (+/− compounds) diluted in assay buffer. Reactions were incubated for 60 minutes at 37° C. Reactions were stopped by adding acetic acid (100 mM final). Readings were performed on a Pherastar Fluorescent Reader (BMG). λ Emission 380 nm; λ Excitation=460 nm.

[3] = biological target: USP7 (Homo sapiens, UniProt Q93009); assay: USP7 activity assay, Ub-AMC substrate; design: Full-length wild-type human USP7 and its catalytic mutant; His tag (pFastBac-HT vector) (N); made in house; host or cells: Spodoptera frugiperda Sf9 (or High Five) insect cells, baculovirus; conditions: UbAMC substrate 300 nM, USP7 100 pM
Sequence of USP7 (Q93009 whole entry): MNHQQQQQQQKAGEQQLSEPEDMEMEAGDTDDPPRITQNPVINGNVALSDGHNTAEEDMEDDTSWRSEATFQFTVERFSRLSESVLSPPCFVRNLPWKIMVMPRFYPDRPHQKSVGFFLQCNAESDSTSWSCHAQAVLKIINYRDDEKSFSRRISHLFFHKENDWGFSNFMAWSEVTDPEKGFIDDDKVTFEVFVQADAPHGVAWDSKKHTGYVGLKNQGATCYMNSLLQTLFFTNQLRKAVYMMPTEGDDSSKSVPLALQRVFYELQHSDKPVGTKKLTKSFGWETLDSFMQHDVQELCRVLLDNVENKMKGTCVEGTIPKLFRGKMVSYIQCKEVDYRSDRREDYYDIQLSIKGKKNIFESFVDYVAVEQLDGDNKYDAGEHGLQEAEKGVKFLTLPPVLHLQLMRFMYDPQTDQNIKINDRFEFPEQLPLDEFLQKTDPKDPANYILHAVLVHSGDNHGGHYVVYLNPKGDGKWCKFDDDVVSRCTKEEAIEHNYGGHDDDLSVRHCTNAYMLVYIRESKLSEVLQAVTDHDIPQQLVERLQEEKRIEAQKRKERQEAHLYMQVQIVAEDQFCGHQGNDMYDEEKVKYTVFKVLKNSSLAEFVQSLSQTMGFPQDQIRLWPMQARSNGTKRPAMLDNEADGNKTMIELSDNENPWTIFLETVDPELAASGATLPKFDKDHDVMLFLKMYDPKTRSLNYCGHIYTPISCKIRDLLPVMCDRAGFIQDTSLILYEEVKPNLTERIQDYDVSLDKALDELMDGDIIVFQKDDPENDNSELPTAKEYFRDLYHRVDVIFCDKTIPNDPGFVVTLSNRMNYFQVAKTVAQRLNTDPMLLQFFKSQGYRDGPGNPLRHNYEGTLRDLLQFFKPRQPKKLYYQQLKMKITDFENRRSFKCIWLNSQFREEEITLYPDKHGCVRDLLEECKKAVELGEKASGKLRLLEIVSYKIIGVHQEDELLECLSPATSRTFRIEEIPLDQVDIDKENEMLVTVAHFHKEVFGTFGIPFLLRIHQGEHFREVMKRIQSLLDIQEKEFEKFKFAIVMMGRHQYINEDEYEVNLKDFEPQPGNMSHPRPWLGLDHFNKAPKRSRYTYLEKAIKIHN
Procedure: Bacmid DNA was prepared by an alkaline lysis procedure. The integrity of the bacmid minipreps and their orientation were checked by PCR, using generic and specific primers. Sf9 insect cells were cultured in InsectXpress medium (Cambrex) at 27° C. and transfected with the corresponding bacmid, using GeneShuttle 40 (Q-BIOgen). Viruses were recovered in the supernatant 72 h after transfection. Viruses were amplified by infecting insect cells (Sf9 or High Five cells; invitrogen) in 50 ml InsectXpress medium in a 150 cm^2 cell culture flask with 500 μl of the supernatant from transfected Sf9 cells. Following the second round of amplification, infected cells were recovered by rapid SDS lysis, boiled for 5 min at 100° C., sonicated briefly and centrifuged for 20 min at 14,000 g.
USP7 was diluted in USP buffer (50 mM Tris HCl; 0.5 mM EDTA (Ethylenediaminetetraacetic acid); 5 mM DTT; 0.01% Triton X-100; Bovine Serum Albumin 0.05 mg·ml^−1 pH7.6). Compounds stocks (10 mM) were stored at −20° C. in DMSO.
as §1, with “(small volumes” for “(small volume”, “volume). […]” for “volume). The substrate concentration for USP5 was 300 nM Ub-AMC (Boston Biochem).”, “enzyme (USP7)” for “enzyme (USP5)”, “was 100” for “was 300”

Row | SMILES | IC50 [1] | IC50 [2] | IC50 [3]
1 | O=C(CCc1ccccc1)N1CCC(O)(Cn2cnc3ccccc3c2=O)CC1 [Example 1, 3-{[4-hydroxy-1-(3-phenylpropanoyl)piperidin-4-yl]methyl}-3,4-dihydroquinazolin-4-one] | > 200 µM | > 200 µM | 69 µM
2 | O=C(CCc1ccccc1)N1CCC(O)(Cn2cnc3cc(Cl)ccc3c2=O)CC1 [Example 2, 7-chloro-3-{[4-hydroxy-1-(3-phenylpropanoyl)piperidin-4-yl]methyl}-3,4-dihydroquinazolin-4-one] | – | > 200 µM | 33 µM
3 | O=C(CCC1CCCC1)N1CCC(O)(Cn2cnc3ccccc3c2=O)CC1 [Example 3, 3-{[1-(3-cyclopentylpropanoyl)-4-hydroxypiperidin-4-yl]methyl}-3,4-dihydroquinazolin-4-one] | > 200 µM | > 200 µM | 100 µM
4 | O=C(CCC1CCCC1)N1CCC(O)(Cn2cnc3cc(Cl)ccc3c2=O)CC1 [Example 4, 7-chloro-3-{[1-(3-cyclopentylpropanoyl)-4-hydroxypiperidin-4-yl]methyl}-3,4-dihydroquinazolin-4-one] | > 200 µM | > 200 µM | 54 µM
5 | CC(Cc1cccs1)C(=O)N1CCC(O)(Cn2cnc3ccccc3c2=O)CC1 (stereo not shown) [Example 5, 3-({4-hydroxy-1-[2-methyl-3-(thiophen-2-yl)propanoyl]piperidin-4-yl}methyl)-3,4-dihydroquinazolin-4-one] | > 200 µM | > 200 µM | 37 µM
6 | CC(C)C(=O)N1CCC(O)(Cn2cnc3ccccc3c2=O)CC1 [Example 6, 3-{[4-hydroxy-1-(2-methylpropanoyl)piperidin-4-yl]methyl}-3,4-dihydroquinazolin-4-one] | > 200 µM | > 200 µM | 156 µM
7 | COc1cc2ncn(CC3(O)CCN(C(=O)C(C)C)CC3)c(=O)c2cc1OC [Example 7, 3-{[4-hydroxy-1-(2-methylpropanoyl)piperidin-4-yl]methyl}-6,7-dimethoxy-3,4-dihydroquinazolin-4-one] | > 200 µM | > 200 µM | 90 µM
8 | CCC(CC)C(=O)N1CCC(O)(Cn2cnc3cc(Cl)ccc3c2=O)CC1 [Example 9, 7-chloro-3-{[1-(2-ethylbutanoyl)-4-hydroxypiperidin-4-yl]methyl}-3,4-dihydroquinazolin-4-one] | > 200 µM | > 200 µM | 155 µM
9 | COc1ccccc1CCC(=O)N1CCC(O)(Cn2cnc3ccccc3c2=O)CC1 [Example 10, 3-({4-hydroxy-1-[3-(2-methoxyphenyl)propanoyl]piperidin-4-yl}methyl)-3,4-dihydroquinazolin-4-one] | > 200 µM | > 200 µM | 261 µM
10 | CC(Cc1cccs1)C(=O)N1CCC(O)(Cn2cnc3cc(Cl)ccc3c2=O)CC1 (stereo not shown) [Example 11, 7-chloro-3-({4-hydroxy-1-[2-methyl-3-(thiophen-2-yl)propanoyl]piperidin-4-yl}methyl)-3,4-dihydroquinazolin-4-one] | > 200 µM | > 200 µM | 40 µM
11 | O=C(CCc1cccs1)N1CCC(O)(Cn2cnc3ccccc3c2=O)CC1 [Example 12, 3-({4-hydroxy-1-[3-(thiophen-2-yl)propanoyl]piperidin-4-yl}methyl)-3,4-dihydroquinazolin-4-one] | > 200 µM | > 200 µM | 70 µM
12 | CC(Cc1ccccc1)C(=O)N1CCC(O)(Cn2cnc3ccccc3c2=O)CC1 (stereo not shown) [Example 13, 3-{[1-(2-benzylpropanoyl)-4-hydroxypiperidin-4-yl]methyl}-3,4-dihydroquinazolin-4-one] | > 200 µM | > 200 µM | –
13 | CC(Cc1ccccc1)C(=O)N1CCC(O)(Cn2cnc3cc(Cl)ccc3c2=O)CC1 (stereo not shown) [Example 14, 3-{[1-(2-benzylpropanoyl)-4-hydroxypiperidin-4-yl]methyl}-7-chloro-3,4-dihydroquinazolin-4-one] | > 200 µM | > 200 µM | 24 µM
